The values that follow come from ChEMBL document CHEMBL3044757, “Design, synthesis and in vitro antimicrobial activity of novel phenylbenzamido-aminothiazole-based azasterol mimics” (2013).

In brackets after ≈: the same amount, converted by molar mass. Activity calls are given as the source filed them. The calls are words filed in the database; no cut-off is given here.

Common to all, as to type: functional
One experiment has as its system Enterobacter cloacae. The experiment in a line: Antibacterial activity against Enterobacter cloacae assessed as growth inhibition after 18 to 24 hr by resazurin assay. A general note: Alamar Blue is a resazurin reagent that responds to reducing activity.
Experiment [1] concerns Fusarium oxysporum. Briefly: Antifungal activity against Fusarium oxysporum assessed as inhibition of fungal spore germination after 24 hr by compound microscopic analysis relative to control.
The next experiment concerns Bacillus licheniformis. Briefly: Antibacterial activity against Bacillus licheniformis assessed as growth inhibition after 18 to 24 hr by resazurin assay.
Another experiment deals with Escherichia coli. Briefly: Antibacterial activity against Escherichia coli assessed as growth inhibition after 18 to 24 hr by resazurin assay.
The subject of experiment [2] is Alternaria alternata. The experiment in a line: Antifungal activity against Alternaria alternata assessed as inhibition of fungal spore germination after 24 hr by compound microscopic analysis relative to control.
The test system of experiment [3] is Curvularia lunata. Briefly: Antifungal activity against Curvularia lunata assessed as inhibition of fungal spore germination after 24 hr by compound microscopic analysis relative to control.
The test system of experiment [4] is Alternaria alternata. Briefly: Antifungal activity against Alternaria alternata assessed as inhibition of fungal spore germination after 24 hr by compound microscopic analysis relative to nystatin.
The test system of experiment [5] is Fusarium oxysporum. Briefly: Antifungal activity against Fusarium oxysporum assessed as inhibition of fungal spore germination after 24 hr by compound microscopic analysis relative to nystatin.
Experiment [6] deals with Curvularia lunata. The experiment in a line: Antifungal activity against Curvularia lunata assessed as inhibition of fungal spore germination after 24 hr by compound microscopic analysis relative to nystatin.
Experiment [7] relates to Mycobacterium tuberculosis. The experiment in a line: Antibacterial activity against Mycobacterium tuberculosis H37Rv assessed as growth inhibition after 5 days by microplate Alamar blue assay. The note with it: 120 h.
Setting [8] is: dose or concentration not given here.

In general, MIC refers to the lowest concentration that inhibits growth of the organism. What is called inhibition is how much of the control response was suppressed. For `COc1ccc(/N=N/c2sc(N)nc2-c2ccc(NC(=O)c3ccccc3)cc2)cc1`, the results for the MIC in the experiment on Enterobacter cloacae, with Bacillus licheniformis and in the experiment on Escherichia coli were 250 µg/mL (≈ 582 µM), 0.125 µg/mL (≈ 0.291 µM) and 7.8 µg/mL (≈ 18.2 µM), respectively. The inhibition entry in the experiment on Fusarium oxysporum [1], with Alternaria alternata [2] and in the experiment on Curvularia lunata [3] was “inactive” in each case.

On to `Nc1nc(-c2ccc(NC(=O)c3ccccc3)cc2)c(/N=N/c2ccc([N+](=O)[O-])cc2)s1`, for which the MIC in the experiment on Enterobacter cloacae was 125 µg/mL (≈ 281 µM); in the experiment with Bacillus licheniformis, 0.0312 µg/mL (≈ 0.0703 µM); in the experiment on Escherichia coli, 62.5 µg/mL (≈ 141 µM).

`Nc1nc(-c2ccc(NC(=O)c3ccccc3)cc2)c(/N=N/c2cccc([N+](=O)[O-])c2)s1`: the MIC in the experiment with Enterobacter cloacae was found to be 250 µg/mL (≈ 562 µM); in the experiment on Bacillus licheniformis, 0.0625 µg/mL (≈ 0.141 µM); in the experiment on Escherichia coli, 62.5 µg/mL (≈ 141 µM). Also, the inhibition result in the experiment with Fusarium oxysporum [1], in the experiment with Alternaria alternata [2] and with Curvularia lunata [3] was “inactive” in each case.

Turning to `Nc1nc(-c2ccc(NC(=O)c3ccccc3)cc2)c(/N=N/c2ccccc2Cl)s1`, the minimum inhibitory concentration (MIC) came out at 250 µg/mL (≈ 576 µM) in the experiment with Enterobacter cloacae, 0.125 µg/mL (≈ 0.288 µM) with Bacillus licheniformis and 125 µg/mL (≈ 288 µM) in the experiment on Escherichia coli. The “fold change (FC)” value with Alternaria alternata [4] is on record as 1.8; in the experiment with Fusarium oxysporum [5] it was 1.17; with Curvularia lunata [6], 1.73.

On to `Nc1nc(-c2ccc(NC(=O)c3ccccc3)cc2)cs1`, for which the MIC with Enterobacter cloacae is 250 µg/mL (≈ 846 µM); with Bacillus licheniformis, 0.125 µg/mL (≈ 0.423 µM); with Escherichia coli it was 7.8 µg/mL (≈ 26.4 µM); in [7] it was 16 µg/mL (≈ 54.2 µM). Further, the “fold change (FC)” value was found to be 1.31 with Alternaria alternata [4] and 1.06 in the experiment with Curvularia lunata [6].

For the compound `Nc1nc(-c2ccc(NC(=O)c3ccccc3)cc2)c(/N=N/c2ccccc2)s1`, the MIC was 250 µg/mL (≈ 626 µM) in the experiment with Enterobacter cloacae, 0.25 µg/mL (≈ 0.626 µM) in the experiment with Bacillus licheniformis and 62.5 µg/mL (≈ 156 µM) in the experiment with Escherichia coli. The inhibition entry with Fusarium oxysporum [1], with Alternaria alternata [2] and with Curvularia lunata [3] was “inactive” in each case.

For `Nc1nc(-c2ccc(NC(=O)c3ccccc3)cc2)c(/N=N/c2ccc(Br)cc2)s1`, the MIC in the experiment with Enterobacter cloacae is 250 µg/mL (≈ 523 µM); in the experiment on Bacillus licheniformis it was 0.25 µg/mL (≈ 0.523 µM); with Escherichia coli, 250 µg/mL (≈ 523 µM). The “fold change (FC)” value is listed as 1.11 in the experiment with Alternaria alternata [4] and 2.07 with Fusarium oxysporum [5].

As to NYSTATIN, the inhibition in the experiment on Fusarium oxysporum [1] (setting [8]), in the experiment with Alternaria alternata [2] (setting [8]) and with Curvularia lunata [3] (setting [8]) was 100% throughout.

Regarding `Cc1ccc(/N=N/c2sc(N)nc2-c2ccc(NC(=O)c3ccccc3)cc2)cc1`, the MIC in the experiment with Enterobacter cloacae is 250 µg/mL (≈ 605 µM); with Bacillus licheniformis, 0.125 µg/mL (≈ 0.302 µM); with Escherichia coli, 125 µg/mL (≈ 302 µM). The inhibition entry in the experiment with Fusarium oxysporum [1], with Alternaria alternata [2] and in the experiment with Curvularia lunata [3] was “inactive” each time.

For the compound `Nc1nc(-c2ccc(NC(=O)c3ccccc3)cc2)c(/N=N/c2ccc(Cl)cc2)s1`, the MIC is 250 µg/mL (≈ 576 µM) in the experiment with Enterobacter cloacae, 0.125 µg/mL (≈ 0.288 µM) with Bacillus licheniformis and 250 µg/mL (≈ 576 µM) in the experiment with Escherichia coli. In addition, the inhibition result with Fusarium oxysporum [1], with Alternaria alternata [2] and with Curvularia lunata [3] was “inactive” in each case.

Turning to `O=C(N[C@H](CO)[C@H](O)c1ccc([N+](=O)[O-])cc1)C(Cl)Cl` [CHLORAMPHENICOL], the MIC with Enterobacter cloacae was 3.9 µg/mL (≈ 12.1 µM); in the experiment with Bacillus licheniformis, 0.0039 µg/mL (≈ 0.0121 µM); in the experiment with Escherichia coli, 3.9 µg/mL (≈ 12.1 µM).

For `Nc1nc(-c2ccc(NC(=O)c3ccccc3)cc2)c(/N=N/c2ccccc2[N+](=O)[O-])s1`, the MIC with Enterobacter cloacae is 250 µg/mL (≈ 562 µM); in the experiment with Bacillus licheniformis, 0.125 µg/mL (≈ 0.281 µM); in the experiment on Escherichia coli, 125 µg/mL (≈ 281 µM). In addition, the entries for the “fold change (FC)” value with Alternaria alternata [4] and in the experiment on Fusarium oxysporum [5] were 1.71 and 1.49, respectively.

As to `Nc1nc(-c2ccc(NC(=O)c3ccccc3)cc2)c(/N=N/c2cccc(Cl)c2)s1`, the MIC was 250 µg/mL (≈ 576 µM) with Enterobacter cloacae, 0.125 µg/mL (≈ 0.288 µM) with Bacillus licheniformis and 250 µg/mL (≈ 576 µM) in the experiment with Escherichia coli. The inhibition entry in the experiment with Fusarium oxysporum [1], with Alternaria alternata [2] and in the experiment on Curvularia lunata [3] was “inactive” each time.
